US8008331B2, “Benzothiazol-2-one derivatives as lipase and phospholipase inhibitors” (Sanofi-Aventis, priority 2005, dated 2011)

Target: T1, endothelial lipase (EL) (Homo sapiens, UniProt Q9Y5X9)
T1 construct: made in house; host or cells: recombinant cell lines (CHO, HEK293); concentrated conditioned medium
T1 sequence (Q9Y5X9 21-500): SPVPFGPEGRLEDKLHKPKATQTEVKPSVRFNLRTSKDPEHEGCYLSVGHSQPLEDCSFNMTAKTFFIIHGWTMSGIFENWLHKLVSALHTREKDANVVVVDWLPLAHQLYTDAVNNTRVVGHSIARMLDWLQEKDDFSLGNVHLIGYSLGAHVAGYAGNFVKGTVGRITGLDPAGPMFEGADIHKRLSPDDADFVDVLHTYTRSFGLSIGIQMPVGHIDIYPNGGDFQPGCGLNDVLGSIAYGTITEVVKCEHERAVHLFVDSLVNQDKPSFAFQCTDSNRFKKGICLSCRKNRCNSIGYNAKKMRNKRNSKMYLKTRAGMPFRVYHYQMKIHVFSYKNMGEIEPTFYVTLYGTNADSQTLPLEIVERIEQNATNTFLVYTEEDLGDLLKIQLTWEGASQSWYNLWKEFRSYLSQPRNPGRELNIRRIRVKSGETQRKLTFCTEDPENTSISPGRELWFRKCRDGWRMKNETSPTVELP
Assay: Further EL inhibition assay
Format: biochemical
Conditions: phospholipase substrate (Bodipy-labelled phosphocholine), 37° C., 90 minutes, EL from conditioned medium of recombinant cell lines (CHO, HEK293)
Excerpt: EL is released as secretory protein in high concentration into cell culture medium (conditioned medium) by recombinant cell lines (CHO, HEK293). This is employed as enzyme solution after concentration.
The enzymatic activity is reduced as a function of the inhibitor concentration used, and the inhibitor concentration at which a half-maximum enzymatic activity is observed is called IC50.
The phospholipase-specific substrate 1,2-bis(4,4-difluoro-5,7-dimethyl-4-bora-3a,4a-diaza-s-indacene-3-undecanoyl)-sn-glycero-3-phosphocholine, (manufacturer Molecular Probes) is used to characterize the enzymatic activity of endothelial lipase and the effect of inhibitors. Hydrolysis of the A1 ester linkage of this phospholipid by the enzyme liberates the fluorescent dye Bodipy which can be detected after separation by thin-layer chromatography on an HPTLC plate (silica gel 60, Merck) or directly in the reaction vessel by measuring the fluorescence.
The substrate solution is prepared by dissolving 100 μg of 1,2-bis(4,4-difluoro-5,7-dimethyl-4-bora-3a,4a-diaza-s-indacene-3-undecanoyl)-sn-glycero-3-phosphocholine (manufacturer Molecular Probes) in 100 μl of DMSO and taking up in 2.4 mg of tripalmitin (Sigma) in 393 μl of chloroform which comprises 20 mg/ml DOP-choline (1,2-dioleoyl-sn-glycero-3-phosphocholine). 39.3 μl of this lipid mixture are transferred into a fresh reaction vessel, and the solvent is evaporated off. The lipid mixture is dissolved in 4 ml of 200 mM TRIS-HCl, 150 mM sodium chloride, pH=7.4, by sonication twice. The subsequent enzymic reaction takes place at 37° C. for 90 minutes. For this purpose, 20 μl of the substrate solution are incubated with 2 μl of inhibitor of appropriate concentration (dissolved in 10% DMSO, using 10% strength DMSO solution for control) and 2 μl of enzyme solution (conditioned medium). The 4 μl of the assay mixture are loaded onto an HPTLC plate (silica gel 60, Merck), and the liberated fluorescent dye is separated for detection with an eluent (diethyl ether:petroleum benzine:acetic acid [78:22:1]). After evaporation of the eluent, the plate is read in a fluorescence scanner. An increased liberation of the fluorescent dye in the uninhibited reaction is to be observed as a measure of the enzymic activity.

Row | Compound | IC50 [µM]
1 | CCCCCCNC(=O)n1c(=O)sc2ccccc21 [Example 1, 2-Oxobenzothiazole-3-hexylcarboxamide] | 0.16
2 | CCCCCCCNC(=O)n1c(=O)sc2ccccc21 [Example 2, 2-Oxobenzothiazole-3-heptylcarboxamide] | 0.051
3 | Cc1ccccc1CNC(=O)n1c(=O)sc2ccccc21 [Example 3, 2-Oxobenzothiazole-3-(2-methylbenzyl)carboxamide] | 0.052
4 | Cc1cccc(CNC(=O)n2c(=O)sc3ccccc32)c1 [Example 4, 2-Oxobenzothiazole-3-(3-methylbenzyl)carboxamide] | 0.215
5 | CCCCCCNC(=O)n1c(=O)sc2cc(Br)ccc21 [Example 5, 6-Bromo-2-oxobenzothiazole-3-hexylcarboxamide] | 0.435
6 | CCCCCCCNC(=O)n1c(=O)sc2ccc(Cl)cc21 [Example 6, 5-Chloro-2-oxobenzothiazole-3-heptylcarboxamide] | 0.014
7 | CCCCCCNC(=O)n1c(=O)sc2ccc(C(F)(F)F)cc21 [Example 7, 2-Oxo-5-trifluoromethylbenzothiazole-3-hexylcarboxamide] | 0.12
